Test results as given in patent US20220387602A1, “BIFUNCTIONAL DEGRADERS AND THEIR METHODS OF USE” (NOVARTIS AG, priority 2019, published 2022).

How the values were obtained:
CRBN = CRBN (Homo sapiens, UniProt Q96SW2); experiment: CRBN displacement assay Format 1 (fluorescence polarization, BodipyFL-lenalidomide probe Compound HH); type: binding
Protocol: Compounds were tested in the following biochemical and cellular assays.
BodipyFL conjugated lenalidomide compound HH was used as a fluorescent probe. […] Protein and substrate were diluted in assay buffer.
All protein and probe containing solutions were handled in ‘Maxymum Recovery’ tubes (Axygen Scientific Inc., Union City, USA). […] For the plate measurements a PHERAstar reader (BMG Labtech, Offenburg, Germany) was used. The instrument was equipped with a specific optics module containing filters and dichoic mirrors for measuring the fluorescence polarization-type assay. With this module, the fluorescence of the Bodipy FL-based probe was excited at 485 nm and the emissions of the product were measured at 520 nm. The fluorescence in each well was excited by 10 flashes per measurement.
For the determination of AC50 values, the assays were performed at room temperature in 384-well plates with a total assay volume of 10.1 μL per well. The test compound was dissolved in 90% (v/v) DMSO/water. For the assays, 100 nL of the 90% (v/v) DMSO/water solution or compound solution were added per well, followed by the addition of 5 μL protein solution (protein in 1× assay buffer).
The final assay concentration of the protein was nominally 100 nM. After 45 minutes of pre-incubation at room temperature, the competition for binding was started by the addition of 5 μL probe solution (probe dissolved in assay buffer). The final concentration of the probes in the assays was 5 nM. After the addition of the probe solution, the final DMSO concentration in the assay was 0.9% (v/v). The effect of the probe on the pre-established compound-protein complex equilibrium was determined after 45 minutes (t=45 min). The AC50 value was calculated from the plot of percentage of protein saturation versus the test compound concentration by a logistics fit according to: y=A^2+(A^1−A^2)/(1+(x/AC50)^p), where y is the %-saturation value at the test compound concentration, x. A^1 is the lowest saturation value, i.e., 0%, and A^2 the maximum saturation value, i.e. 100%. The exponent, p, is the Hill coefficient.

BTK = target: T1, BTK (Homo sapiens, UniProt Q06187); experiment: BTK-GFP protein abundance flow cytometry assay in HEK293A; type: cell-based; settings: 24 h; for BTK degradation Amax: % protein remaining at the concentration at which maximum degradation is seen, HEK293A; for DC50: concentration at which 50% maximal degradation was observed, HEK293A BTK-GFP sensor cells
T1 construct: the BTK open reading frame (ORF) was first shuttled from a pcDNA-DEST40-BTK vector; expressed in transfected cells; host or cells: HEK293A (Invitrogen R70507), lentiviral transduction, blasticidin selection
T1 sequence (Q06187 whole entry): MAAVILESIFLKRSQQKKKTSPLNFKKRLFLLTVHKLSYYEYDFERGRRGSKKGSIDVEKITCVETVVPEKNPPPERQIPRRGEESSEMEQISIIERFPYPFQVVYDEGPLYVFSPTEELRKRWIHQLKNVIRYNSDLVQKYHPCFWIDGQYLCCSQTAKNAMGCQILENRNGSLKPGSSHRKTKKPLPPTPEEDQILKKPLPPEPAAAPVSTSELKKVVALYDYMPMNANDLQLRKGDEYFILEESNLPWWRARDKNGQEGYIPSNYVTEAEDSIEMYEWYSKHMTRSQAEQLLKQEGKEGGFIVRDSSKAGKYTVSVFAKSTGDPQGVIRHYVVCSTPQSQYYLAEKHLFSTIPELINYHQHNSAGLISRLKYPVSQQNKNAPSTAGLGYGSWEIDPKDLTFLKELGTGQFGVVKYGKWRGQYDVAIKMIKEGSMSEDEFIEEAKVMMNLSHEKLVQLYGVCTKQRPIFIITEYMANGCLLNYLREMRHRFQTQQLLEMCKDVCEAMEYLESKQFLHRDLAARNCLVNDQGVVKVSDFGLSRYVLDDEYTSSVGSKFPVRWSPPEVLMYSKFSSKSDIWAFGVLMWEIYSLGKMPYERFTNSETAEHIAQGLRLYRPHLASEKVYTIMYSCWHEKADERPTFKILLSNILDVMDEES
Protocol: Degradation of BTK, CSK, ABL2, EPHA4 and YES1 was measured in HEK293A cells (Invitrogen R70507) expressing either BTK-GFP and RFP, CSK-GFP and mCherry, GFP-ABL2 and mCherry, EPHA4-GFP and mCherry, or YES1-GFP and mCherry from a stably integrated bicistronic BTK-GFP-iresRFP, CSK-GFP-CHYSEL-mCherry, GFP-ABL2-CHYSEL-mCherry, EPHA4-GFP-CHYSEL-mCherry, or YES1-GFP-CHYSEL-mCherry construct, respectively. Reduction of the GFP signal measured by flow cytometry served as readout for BTK, CSK, ABL2, EPHA4 and YES1 degradation after degrader treatment.
The mix was incubated for another 20 min at RT and then added on 1 mL of a freshly prepared suspension of HEK293FT cells in a well of a 6-well plate (concentration 1.2×10^6 cells/mL). 1 day after transfection, the medium was replaced with 1.5 mL of complete growth medium (DMEM high Glucose+10% FCS+1% L-Glutamine+1% NEAA+1% NaPyr.). 48 h post transfection supernatant containing viral transducing particles was collected and frozen at −80° C.
Infection was performed with 90 μL of collected supernatant containing viral transducing particles in 1 mL medium including 8 µg/mL polybrene. 24 h post infection, stably transfected cells were selected with blasticidin at a concentration of 8 μg/mL referred to as stable HEK293A sensor cells.
Stable HEK293A sensor cells were maintained in complete growth medium (DMEM high Glucose+10% FCS+1% L-Glutamine+1% NEAA+1% NaPyr.) with passaging performed twice per week. On Day 0, stable HEK293A sensor cells were seeded at 10,000 cells/well in a 96-well microtiter plate in 260 μL complete medium. On Day 1, cells were treated in duplicate with 10-point 1:3 dilution series of compound using the HP D300 Digital Dispenser (Tecan). DMSO concentrations were normalized across the plate to 0.1%. On Day 2, after 24 h of incubation at 37° C., treatment media was discarded, cells rinsed with 100 μL/well PBS and then detached using 40 μL trypsin/well for 5 min. Trypsin was neutralized with 100 μL/well PBS+20% FCS). Flow cytometry was performed on the samples using the BD FACS CANTO II (Becton Dickinson). Cell identification was then performed using forward (FSC) vs. side scatter (SSC) plots. Single cell discrimination is performed using SSC-Width (SSC-W) vs. SSC-Height (SSC-H) plots. Median GFP values for 5,000 single cells are used to determine BTK levels. Median GFP values from HEK293 Å-iresRFP are used as a background signal and thus defining 0% BTK signal. Median GFP values from DMSO treated HEK293 Å-BTK-GFP-iresRFP are used to define 100% BTK signal for subsequent DC50 curves (concentration at 50% BTK degradation). GFP and RFP are read in the channels called FITC and PE, respectively.
Concentration response curves plotting relative reduction of the GFP signal (measured by flow cytometry) versus 10 compound concentrations (starting concentration 10 μM, 3 fold dilution steps) of the compounds allowed generation of DC50 values. Protein abundance measured for the second generation vectors having a chysel was done in close analogy to the above described method for measuring BTK abundance.
Table 5 columns are defined as follows: DC50 refers to the concentration at which 50% maximal degradation was observed; deg Amax is the extent of degradation and the value refers to the % protein remaining at the concentration at which maximum degradation is seen.

Chain of CRBN (Q96SW2 whole entry): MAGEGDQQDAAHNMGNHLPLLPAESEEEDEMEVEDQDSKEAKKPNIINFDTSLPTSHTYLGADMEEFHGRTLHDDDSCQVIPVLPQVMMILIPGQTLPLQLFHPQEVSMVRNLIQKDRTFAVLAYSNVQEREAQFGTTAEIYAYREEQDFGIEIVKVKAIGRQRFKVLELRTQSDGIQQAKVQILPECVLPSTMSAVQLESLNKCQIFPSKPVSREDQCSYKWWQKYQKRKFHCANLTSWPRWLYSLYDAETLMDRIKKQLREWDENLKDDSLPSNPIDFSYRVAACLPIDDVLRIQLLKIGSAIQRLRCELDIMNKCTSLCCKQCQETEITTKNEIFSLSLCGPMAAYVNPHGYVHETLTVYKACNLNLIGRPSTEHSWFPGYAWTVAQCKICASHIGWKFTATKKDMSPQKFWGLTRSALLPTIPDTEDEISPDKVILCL

Row | SMILES | AC50 (CRBN) | BTK degradation Amax (BTK) | DC50 (BTK)
1 | Cc1c(NC(=O)N2CC(O)(CC(C)(C)C)C2)cc(F)cc1-c1ncnc2[nH]c(-c3ccc(OCCCN4CCN(C(=O)COc5ccc(Cl)c(N6CCC(=O)NC6=O)c5)CC4)nc3)cc12 [Compound 13, N-(3-(6-(6-(3-(4-(2-(4-chloro-3-(2,4-dioxotetrahydropyrimidin-1(2H)-yl)phenoxy)acetyl)piperazin-1-yl)propoxy)pyridin-3-yl)-7H-pyrrolo[2,3-d]pyrimidin-4-yl)-5-fluoro-2-methylphenyl)-3-hydroxy-3-neopentylazetidine-1-carboxamide] | 0.575 µM | 4.6% | 0.0037 µM
2 | Cc1ccc(OCC(=O)N2CCN(CCOc3ccc(-c4cc5c(-c6cc(F)cc(NC(=O)c7ccc(C(C)(C)O)cc7F)c6C)ncnc5[nH]4)cc3)CC2)cc1N1CCC(=O)NC1=O [Compound 10, N-(3-(6-(4-(2-(4-(2-(3-(2,4-Dioxotetrahydropyrimidin-1(2H)-yl)-4-methylphenoxy)acetyl)piperazin-1-yl)ethoxy)phenyl)-7H-pyrrolo[2,3-d]pyrimidin-4-yl)-5-fluoro-2-methylphenyl)-2-fluoro-4-(2-hydroxypropan-2-yl)benzamide] | 0.466 µM | 3.1% | 0.0033 µM
3 | Cc1c(NC(=O)c2ccc(C(C)(C)O)cc2F)cc(F)cc1-c1ncnc2[nH]c(-c3ccc(CN4CCN(CCNC(=O)COc5cccc(N6CCC(=O)NC6=O)c5)CC4)cc3)cc12 [Compound 09, N-(3-(6-(4-((4-(2-(2-(3-(2,4-dioxotetrahydropyrimidin-1(2H)-yl)phenoxy)acetamido)ethyl)piperazin-1-yl)methyl)phenyl)-7H-pyrrolo[2,3-d]pyrimidin-4-yl)-5-fluoro-2-methylphenyl)-2-fluoro-4-(2-hydroxypropan-2-yl)benzamide] | 1.4 µM | 3.9% | 0.0032 µM
4 | COc1cc(C(=O)NCCCCN2CCN(Cc3ccc(-c4cc5c(-c6cc(F)cc(NC(=O)c7ccc(C(C)(C)O)cc7F)c6C)ncnc5[nH]4)cc3)CC2)ccc1N1CCC(=O)NC1=O [Compound 25, N-(3-(6-(4-((4-(4-(4-(2,4-dioxotetrahydropyrimidin-1(2H)-yl)-3-methoxybenzamido)butyl)piperazin-1-yl)methyl)phenyl)-7H-pyrrolo[2,3-d]pyrimidin-4-yl)-5-fluoro-2-methylphenyl)-2-fluoro-4-(2-hydroxypropan-2-yl)benzamide] | 4.47 µM | 51.1% | > 3.33 µM
5 | Cc1c(NC(=O)c2ccc(C(C)(C)O)cc2F)cc(F)cc1-c1ncnc2[nH]c(C3=CCN(C(=O)CCCCN4CCC(Oc5ccc(N6CCC(=O)NC6=O)cc5)CC4)CC3)cc12 [Compound 27, N-(3-(6-(1-(5-(4-(4-(2,4-Dioxotetrahydropyrimidin-1(2H)-yl)phenoxy)piperidin-1-yl)pentanoyl)-1,2,3,6-tetrahydropyridin-4-yl)-7H-pyrrolo[2,3-d]pyrimidin-4-yl)-5-fluoro-2-methylphenyl)-2-fluoro-4-(2-hydroxypropan-2-yl)benzamide] | 1.94 µM | 21.7% | 0.022 µM
6 | Cc1c(NC(=O)c2ccc(C(C)(C)O)cc2F)cc(F)cc1-c1ncnc2[nH]c(-c3ccc(CNCCCCOCCn4cccc(CN5CCC(=O)NC5=O)c4=O)cc3)cc12 [Compound 34, N-(3-(6-(4-(((4-(2-(3-((2,4-dioxotetrahydropyrimidin-1(2H)-yl)methyl)-2-oxopyridin-1(2H)-yl)ethoxy)butyl)amino)methyl)phenyl)-7H-pyrrolo[2,3-d]pyrimidin-4-yl)-5-fluoro-2-methylphenyl)-2-fluoro-4-(2-hydroxypropan-2-yl)benzamide] | 0.736 µM | 40.3% | 0.642 µM
7 | Cc1c(NC(=O)c2ccc(C(C)(C)O)cc2F)cc(F)cc1-c1ncnc2[nH]c(-c3ccc(CN4CCC(OC5CCN(CCn6cccc(CN7CCC(=O)NC7=O)c6=O)CC5)CC4)cc3)cc12 [Compound 33, N-(3-(6-(4-((4-((1-(2-(3-((2,4-dioxotetrahydropyrimidin-1(2H)-yl)methyl)-2-oxopyridin-1(2H)-yl)ethyl)piperidin-4-yl)oxy)piperidin-1-yl)methyl)phenyl)-7H-pyrrolo[2,3-d]pyrimidin-4-yl)-5-fluoro-2-methylphenyl)-2-fluoro-4-(2-hydroxypropan-2-yl)benzamide] | 0.915 µM | 6.1% | 0.0021 µM
8 | Cc1c(NC(=O)c2ccc(C(C)(C)O)cc2F)cc(F)cc1-c1ncnc2[nH]c(-c3ccc(CN(C)CCCCCCOc4cccc(N5CCC(=O)NC5=O)c4)cc3)cc12 [Compound 16, N-(3-(6-(4-(((6-(3-(2,4-Dioxotetrahydropyrimidin-1(2H)-yl)phenoxy)hexyl)(methyl)amino)methyl)phenyl)-7H-pyrrolo[2,3-d]pyrimidin-4-yl)-5-fluoro-2-methylphenyl)-2-fluoro-4-(2-hydroxypropan-2-yl)benzamide] | 0.916 µM | 15.9% | 0.0226 µM
9 | Cc1c(NC(=O)c2ccc(C(C)(C)O)cc2F)cc(F)cc1-c1ncnc2[nH]c(-c3ccc(CN4CCC5(CC4)CN(CCCc4ccc(N6CCC(=O)NC6=O)cc4)CCO5)cc3)cc12 [Compound 20, N-(3-(6-(4-((4-(3-(4-(2,4-Dioxotetrahydropyrimidin-1(2H)-yl)phenyl)propyl)-1-oxa-4,9-diazaspiro[5.5]undecan-9-yl)methyl)phenyl)-7H-pyrrolo[2,3-d]pyrimidin-4-yl)-5-fluoro-2-methylphenyl)-2-fluoro-4-(2-hydroxypropan-2-yl)benzamide] | > 100 µM | 37.1% | 0.0277 µM
10 | Cc1c(NC(=O)c2ccc(C(C)(C)O)cc2F)cc(F)cc1-c1ncnc2[nH]c(-c3ccc(CNCCCCCCn4cc(-c5cccc(N6CCC(=O)NC6=O)c5)nn4)cc3)cc12 [Compound 19, N-(3-(6-(4-(((6-(4-(3-(2,4-Dioxotetrahydropyrimidin-1(2H)-yl)phenyl)-1H-1,2,3-triazol-1-yl)hexyl)amino)methyl)phenyl)-7H-pyrrolo[2,3-d]pyrimidin-4-yl)-5-fluoro-2-methylphenyl)-2-fluoro-4-(2-hydroxypropan-2-yl)benzamide] | 0.104 µM | 48.2% | 0.229 µM
